# Measurements as given in paper PMC7064328 (Environmental Health Perspectives, 2020).
# Assays:
# placenta = assay: Placental thyroid hormone quantification (HPLC-MS/MS); assay type: in vivo, mouse (CD-1); conditions: E17.5
# Description: Thyroid hormones (T3, triiodothyronine; T4, thyroxine; rT3, reverse triiodothyronine) in placenta were analyzed according to the methods described in Leonetti et al. ([2016]). Briefly, ∼300mg ( 207–526mg ) of two to three pooled placental tissues of same-sex embryos was homogenized and digested for 16 h overnight in PRONASE® Protease (Streptomyces griseus) solution (EMD Millipore Corp.). Each pooled sample of two to three placentas was considered as one biological replicate and included placentas from the same litter when possible. Three biological replicates were used for each treatment group and each sex. Samples were spiked with an antioxidant solution (containing 37.5mg/mL each of citric acid, ascorbic acid, and dithiothreitol) and C13 isotopically labeled internal standards (T4, T3, and rT3), and cold acetone was added to stop the digestion reaction. Samples were vortex mixed and centrifuged three times for 2 min at 10,000 relative centrifugal force (rcf), and the supernatants were collected and combined. Sample pH was adjusted with 6M hydrochloric acid to pH<2 . A liquid–liquid extraction with cyclopentane was performed and the cyclopentane layer discarded; briefly, 1mL of cyclopentane was added to the supernatant and vortexed before the sample was centrifuged for 3 min at 3,000 rcf and the cyclopentane layer discarded, and this was repeated three times. A liquid–liquid extraction with ethyl acetate was performed; briefly, 3mL of ethyl acetate was added to the extract and vortexed before being shaken on a plate shaker for 30 min and centrifuged for 3 min at 3,000 rcf, and the ethyl acetate layer collected; this was repeated three times. Ethyl acetate extracts were dried down to 50μL under a gentle nitrogen stream and resuspended in 1mL of 0.01M hydrochloric acid in 10% methanol. Samples were purified by solid-phase extraction using SampliQ Optimized Polymer Technology (OPT) cartridges ( 3mL , 50mg; Agilent Technologies). Final extracts in 400μL of 1:1 methanol:water were filtered using Whatman® Mini-UniPrep® Syringeless Filters [Polytetrafluoroethylene (PTFE), 0.2μm; GE Healthcare]. Extracts were analyzed on an Agilent high-performance liquid chromatography (HPLC) 1260 with a Synergi™ 50mm×2mm Polar-RP column ( 2.5μm; Phenomenex) coupled to an Agilent model 6460 tandem mass spectrometer with electrospray ionization (HPLC-MS/MS-ESI). Mobile phases consisted of 10 mM formic acid in methanol and 10 mM formic acid in water. Laboratory processing blanks were extracted alongside the placental tissues to monitor background levels. No TH were detected in the lab blanks. Method detection limits (MDLs) were calculated using a signal-to-noise value of 3 for each analyte (T3, T4, and rT3). Values were normalized to the wet weight of placenta extracted for a final value of nanogram hormone/gram placenta. Values below the MDL (T4, 0.84 ng/g; T3, 0.42 ng/g; rT3, 0.67 ng/g ) were imputed using the calculation MDL×0.5 , and values lacking a quantifiable peak on mass spectrometry were excluded from the analysis.
# TH concentrations in the placenta were quantified, and the ratios of T3:T4 and rT3:T4 in E17.5 placentas were assessed to evaluate potential disruption of peripheral TH control (e.g., impacts on thyroid deiodinase activity). Each end point was analyzed for sex×treatment interaction or for an overall effect of sex. Placenta TH were analyzed by analysis of variance using lme4 ([Bates et al. 2014]). Simultaneous tests for general linear hypotheses were corrected for multiple comparisons of means using Tukey contrasts in the package multcomp ([Hothorn et al. 2009]). Placental TH and their ratios were initially analyzed with embryo sex as an interaction term in the model, with the dose group as the predictor variable. Inclusion of a sex interaction or sex covariate in the final model was examined in a stepwise fashion. Internal dosimetry data were analyzed by analysis of variance. […]
# [1] = design: method as in Gannon et al. 2016; conditions: rats; ref Gannon et al. 2016; cited from earlier work
# rats = conditions: ref Conley et al. 2019, cited from earlier work
# mice = test system: mice; design: method as in Koustas et al. 2014; conditions: pregnant dams; meta-analysis; ref Koustas et al. 2014; cited from earlier work
smiles,measurement,setting,value
"N.O=C(O)C(F)(OC(F)(F)C(F)(F)C(F)(F)F)C(F)(F)F (stereo not shown) [GenX, ammonium 2,3,3,3-tetrafluoro-2-(heptafluoropropoxy)propanoate]",Placental T3,placenta; 2 mg/kg/d,"0.3±0.2 [5 (0, 5)] ng/g"
same,Placental T4,placenta; 2 mg/kg/d,"5.3±1.7 [6 (6, 0)] ng/g"
same,Placental rT3,placenta; 2 mg/kg/d,"1.7±0.8 [6 (6, 0)] ng/g"
same,Placental T3,placenta; 10 mg/kg/d,"0.2±0 [6 (0, 6)] ng/g"
same,Placental T4,placenta; 10 mg/kg/d,"6.1±1.1 [6 (6, 0)] ng/g"
same,Placental rT3,placenta; 10 mg/kg/d,"1.6±0.3 [6 (6, 0)] ng/g"
same,Placental T3,"placenta; female, 2 mg/kg/d",0.3 ± 0.2 ng/g
same,Placental T4,"placenta; female, 2 mg/kg/d",5.9 ± 2.3 ng/g
same,Placental rT3,"placenta; female, 2 mg/kg/d",2.3 ± 0.6 ng/g
same,Placental T3,"placenta; female, 10 mg/kg/d",0.2 ± 0 ng/g
same,Placental T4,"placenta; female, 10 mg/kg/d",6.5 ± 1.4 ng/g
same,Placental rT3,"placenta; female, 10 mg/kg/d",1.9 ± 0.1 ng/g
same,Placental T3,"placenta; male, 2 mg/kg/d",0.2 ± 0 ng/g
same,Placental T4,"placenta; male, 2 mg/kg/d",4.7 ± 1.1 ng/g
same,Placental rT3,"placenta; male, 2 mg/kg/d",1.0 ± 0.2 ng/g
same,Placental T3,"placenta; male, 10 mg/kg/d",0.2 ± 0 ng/g
same,Placental T4,"placenta; male, 10 mg/kg/d",5.8 ± 0.7 ng/g
same,Placental rT3,"placenta; male, 10 mg/kg/d",1.3 ± 0.3 ng/g
same,Elimination half-life,[1],~5 h
same,"LOAEL, disrupted maternal lipids",rats; gestational exposure,125 mg/kg/day
same,"LOAEL, disrupted maternal thyroid hormone",rats; gestational exposure,30 mg/kg/day
same,"LOAEL, lower BWs in gestationally exposed female offspring",rats,125 mg/kg/day
"O=C(O)C(F)(F)C(F)(F)C(F)(F)C(F)(F)C(F)(F)C(F)(F)C(F)(F)F [PFOA, Perfluorooctanoic acid]",Placental T3,placenta; 1 mg/kg/d,"0.2±0 [6 (0, 6)] ng/g"
same,Placental T3:T4 ratio,placenta; 1 mg/kg/d,0.09±0.03 [6]
same,Placental T4,placenta; 1 mg/kg/d,"2.5±1.0 [6 (6, 0)] ng/g"
same,Placental rT3,placenta; 1 mg/kg/d,"0.7±0.4 [6 (3, 3)] ng/g"
same,Placental rT3:T4 ratio,placenta; 1 mg/kg/d,0.30±0.21 [6]
same,Placental T3,placenta; 5 mg/kg/d,"0.2±0 [4 (0, 4)] ng/g"
same,Placental T3:T4 ratio,placenta; 5 mg/kg/d,0.07±0.02 [4]
same,Placental T4,placenta; 5 mg/kg/d,"2.8±1.3 [6 (6, 0)] ng/g"
same,Placental rT3,placenta; 5 mg/kg/d,"1.4±0.7 [5 (5, 0)] ng/g"
same,Placental rT3:T4 ratio,placenta; 5 mg/kg/d,0.45±0.05 [5]
same,Placental T3,"placenta; female, 1 mg/kg/d",0.2 ± 0 ng/g
same,Placental T3:T4 ratio,"placenta; female, 1 mg/kg/d",0.104 ± 0.02
same,Placental T4,"placenta; female, 1 mg/kg/d",2.0 ± 0.4 ng/g
same,Placental rT3:T4 ratio,"placenta; female, 1 mg/kg/d",0.401 ± 0.22
same,Placental T3,"placenta; female, 5 mg/kg/d",0.2 ± 0 ng/g
same,Placental T3:T4 ratio,"placenta; female, 5 mg/kg/d",0.065 ± 0.02
same,Placental rT3,"placenta; female, 5 mg/kg/d",1.6 ± 1.0 ng/g
same,Placental rT3:T4 ratio,"placenta; female, 5 mg/kg/d",0.441 ± 0.05
same,Placental T3,"placenta; male, 1 mg/kg/d",0.2 ± 0 ng/g
same,Placental T3:T4 ratio,"placenta; male, 1 mg/kg/d",0.071 ± 0.02
same,Placental rT3,"placenta; male, 1 mg/kg/d",0.5 ± 0.4 ng/g
same,Placental rT3:T4 ratio,"placenta; male, 1 mg/kg/d",0.196 ± 0.17
same,Placental T3,"placenta; male, 5 mg/kg/d",0.2 ng/g
same,Placental T3:T4 ratio,"placenta; male, 5 mg/kg/d",0.083
same,Placental rT3,"placenta; male, 5 mg/kg/d",1.2 ± 0.1 ng/g
same,Placental rT3:T4 ratio,"placenta; male, 5 mg/kg/d",0.454 ± 0.07
same,Shift in pup birth weight per 1-mg/kg BW/d increase in PFOA dose,mice,-0.023 g
